Values quoted from earlier work, collected in patent US20190154648A1, “METHODS OF ATTENUATING DRUG EXCIPIENT CROSS REACTIVITY” (Chesapeake Therapeutics, LLC, priority 2016, published 2019).
Structures can show the parent of a compound that is named as a salt.

Key:
[1] = in vivo

OCCOCCN1CCN(C2=Nc3ccccc3Sc3ccccc32)CC1 [quetiapine fumarate]
single-dose toxicity [1]: low
mechanistically unexplainable side effects in repeat-dose toxicity studies (nonhuman primates): pigmentation of the thyroid, transient increases in heart rate, posterior triangular cataracts, and reduced lymphocyte count
